Values of other authors as cited in patent US9192579B2, “Sustained release drug delivery devices, methods of use, and methods of manufacturing thereof” (pSivida US, Inc., priority 2000, dated 2015).

Tested on: CMV retinitis
Settings: intravitreal injections of 200 to 400 μg once or twice weekly, AIDS patients

Nc1nc(O)c2ncn(COC(CO)CO)c2n1 [GCV, ganciclovir]
effect on CMV retinitis: temporary remission
